In PubChem BioAssay (NCI):
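Growth conditions: 96-well plates. Treatment: test compound, 48 hours, 5 concentrations. Analysis: linear interpolation between bracketing concentrations; unreached endpoints set to highest concentration. Here, GI50 denotes the concentration required for 50% inhibition of growth. TGI marks complete inhibition of growth.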

Assays:
Assay in all cases: DTP human tumour cell line panel, 48 h
SNB-19 CNS = system: SNB-19 CNS
OVCAR-4 ovarian = system: OVCAR-4 ovarian
MOLT-4 leukemia = system: MOLT-4 leukemia
IGROV1 ovarian = system: IGROV1 ovarian
SN12C renal = system: SN12C renal
HOP-62 NSCLC = system: HOP-62 NSCLC
SF-539 CNS = system: SF-539 CNS
A549 NSCLC = system: A549 NSCLC
SK-OV-3 ovarian = system: SK-OV-3 ovarian
UACC-257 melanoma = system: UACC-257 melanoma

Compound	GI50 (SNB-19 CNS) [µM]	TGI (SNB-19 CNS) [µM]	GI50 (OVCAR-4 ovarian) [µM]	TGI (OVCAR-4 ovarian) [µM]	GI50 (MOLT-4 leukemia) [µM]	TGI (MOLT-4 leukemia) [µM]	GI50 (IGROV1 ovarian) [µM]	TGI (IGROV1 ovarian) [µM]	GI50 (SN12C renal) [µM]	TGI (SN12C renal) [µM]	GI50 (HOP-62 NSCLC) [µM]	TGI (HOP-62 NSCLC) [µM]	GI50 (SF-539 CNS) [µM]	TGI (SF-539 CNS) [µM]	GI50 (A549 NSCLC) [µM]	TGI (A549 NSCLC) [µM]	GI50 (SK-OV-3 ovarian) [µM]	TGI (SK-OV-3 ovarian) [µM]	GI50 (UACC-257 melanoma) [µM]	TGI (UACC-257 melanoma) [µM]
O=C1C(Nc2ccc(Cl)cc2)=C(I)C(=O)c2ncccc21	1.61	3.23	0.989	2.19	0.964	9.32	0.359	1.41	1.47	2.99	1.79	4.74	1.63	3	2.75	9.48	4.28	18	1.29	2.6
Cc1ccccc1C1OC(=O)c2ccc3ccccc3c21 (stereo not given)		> 91.5		19.2		7.18		> 31.6		18.3		5.35		13.4		16.6		8.37		12.2
O=C(Nc1cccc(-n2cc(-c3ccncc3)c(-c3ccc(Cl)c(O)c3)n2)c1)Nc1cc(C(F)(F)F)cc(C(F)(F)F)c1	0.979	6.65	0.795	3.28	1.15	4.36	0.795	2.55	0.852	3.14	0.902	1.81	0.777	1.53	0.313	1.38	1.18	2.83	0.89	2.24
COc1cc2c[n+](C)c3c4cc(OC)c(OC(C)C)cc4ccc3c2cc1OC		> 100		> 100		> 100		> 100		> 100		> 100		> 100		> 100		> 100		> 100
COc1cccc(N2C(=O)C3c4[nH]c5ccccc5c4C4CCCC4C3C2=O)c1 (stereo not given)		> 10		4.76		> 10		> 10		9.02		6.25		> 10		> 10		> 10		> 10
O=C1CCCCC1S(=O)(=O)c1ccccc1 (stereo not given)		> 100		> 100		> 100		> 100		> 100		> 100		> 100		> 100		> 100		> 100
CSC1=C(N)C(=O)c2[nH]cc(CO)c2C1=N	0.155	0.295	0.123	0.249	0.204	0.475	0.225	0.521	0.16	0.317	0.193	0.342	0.171	0.309	0.136	0.331	0.623	1.85	0.134	0.267
O=S(=O)(/C=C/c1ccc(F)cc1)Cc1ccc(CS(=O)(=O)/C=C/c2ccc(F)cc2)cc1		> 100		> 100		> 100		> 100		> 100		> 100		> 100		> 100		> 100		> 100
NNC(=O)C1CCC(=O)N1S(=O)(=O)c1ccccc1 (stereo not given)		> 100		> 100		> 100		> 100		> 100		> 100		> 100		> 100		> 100		> 100
Cc1c(Cl)cccc1C(=O)Nc1nc2c(s1)CN(C(=O)c1ccc(C(F)(F)F)cc1)CC2	0.171	> 50	0.663	> 50	0.193	> 50	0.177	> 50	0.284	> 50	0.173	> 50	0.0923	0.387	0.124	> 50	0.227	> 50	2.36	23.9
Cc1cc2c(cc1Cl)SC1=NN(C)C(C)N1S2(=O)=O (stereo not given)	> 100	> 100	74.8	> 100	71	> 100	> 100	> 100	> 100	> 100	> 100	> 100	> 100	> 100	> 100	> 100	> 100	> 100	> 100	> 100
COc1cccc(-c2c[nH]c3c(N/N=C/c4ccncc4)ncnc23)c1	7.15	> 25	2.65	11.1	4.42	19.6	3.9	> 25	1.65	> 19.3	3.74	> 15.3	1.56	6.81	2.67	10.1	0.903	3.91	6.02	17.5
Cc1nc(Nc2ccccc2)sc1C(=O)CC(=O)C(=O)Nc1c(C(C)C)cccc1C(C)C		> 100		> 100		> 100		> 100		> 100		> 100		> 100		> 100		> 100		> 100
O=C(c1ccc(Cl)cc1Cl)C1[C@H]2C(=O)N(c3ccc(Cc4ccc(N5C(=O)[C@@H]6ON(c7ccccc7)C(C(=O)c7ccc(Cl)cc7Cl)[C@@H]6C5=O)cc4)cc3)C(=O)[C@H]2ON1c1ccccc1 (stereo not given in full)		> 50		> 50		> 50		> 50		> 50		> 50		> 50		> 50		> 50		> 50
NCCCC[C@@H]1NC(=O)[C@H]2CCCN2C(=O)[C@H](Cc2ccccc2)CNC(=O)[C@H](Cc2ccccc2)NC1=O	> 37.5	> 37.5	> 37.5	> 37.5	> 37.5	> 37.5	> 37.5	> 37.5	> 37.5	> 37.5	> 37.5	> 37.5	> 37.5	> 37.5	> 37.5	> 37.5	> 37.5	> 37.5	> 37.5	> 37.5
